Laboratory results taken from patent US10508120B2, “TYK2 inhibitors and uses thereof” (Nimbus Lakshmi, Inc., priority 2017, dated 2019).
Where two headings read alike, the source gives them in different places.

What was measured:
JAK2 kinase domain (JH1) = JAK2 kinase domain (JH1) (Homo sapiens (Human), UniProt O60674); test: JAK2 Radioactive Kinase Assay; type: biochemical; details: for inhibition at 10 µM: read-out: JAK2 JH1% Inhibition @ 10 μM
Summary of the method: (§1)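 Compounds were tested at a single concentration of 10 μM in a radiometric kinase format against each isolated kinase domain. Activity is reported as percent inhibition at that concentration.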

[1] = molecular target: JAK2/JAK2 homdimeric complex (Homo sapiens (Human), UniProt O60674); test: GM-CSF Induced pSTAT5 in Human PBMC; type: cell-based; details: GM-CSF 5 ng/mL for 20 minutes, pSTAT5 by MSD, read-out: PBMC_GMCSF_pSTAT5 IC50
Chain of JAK2/JAK2 homdimeric complex (O60674 whole entry): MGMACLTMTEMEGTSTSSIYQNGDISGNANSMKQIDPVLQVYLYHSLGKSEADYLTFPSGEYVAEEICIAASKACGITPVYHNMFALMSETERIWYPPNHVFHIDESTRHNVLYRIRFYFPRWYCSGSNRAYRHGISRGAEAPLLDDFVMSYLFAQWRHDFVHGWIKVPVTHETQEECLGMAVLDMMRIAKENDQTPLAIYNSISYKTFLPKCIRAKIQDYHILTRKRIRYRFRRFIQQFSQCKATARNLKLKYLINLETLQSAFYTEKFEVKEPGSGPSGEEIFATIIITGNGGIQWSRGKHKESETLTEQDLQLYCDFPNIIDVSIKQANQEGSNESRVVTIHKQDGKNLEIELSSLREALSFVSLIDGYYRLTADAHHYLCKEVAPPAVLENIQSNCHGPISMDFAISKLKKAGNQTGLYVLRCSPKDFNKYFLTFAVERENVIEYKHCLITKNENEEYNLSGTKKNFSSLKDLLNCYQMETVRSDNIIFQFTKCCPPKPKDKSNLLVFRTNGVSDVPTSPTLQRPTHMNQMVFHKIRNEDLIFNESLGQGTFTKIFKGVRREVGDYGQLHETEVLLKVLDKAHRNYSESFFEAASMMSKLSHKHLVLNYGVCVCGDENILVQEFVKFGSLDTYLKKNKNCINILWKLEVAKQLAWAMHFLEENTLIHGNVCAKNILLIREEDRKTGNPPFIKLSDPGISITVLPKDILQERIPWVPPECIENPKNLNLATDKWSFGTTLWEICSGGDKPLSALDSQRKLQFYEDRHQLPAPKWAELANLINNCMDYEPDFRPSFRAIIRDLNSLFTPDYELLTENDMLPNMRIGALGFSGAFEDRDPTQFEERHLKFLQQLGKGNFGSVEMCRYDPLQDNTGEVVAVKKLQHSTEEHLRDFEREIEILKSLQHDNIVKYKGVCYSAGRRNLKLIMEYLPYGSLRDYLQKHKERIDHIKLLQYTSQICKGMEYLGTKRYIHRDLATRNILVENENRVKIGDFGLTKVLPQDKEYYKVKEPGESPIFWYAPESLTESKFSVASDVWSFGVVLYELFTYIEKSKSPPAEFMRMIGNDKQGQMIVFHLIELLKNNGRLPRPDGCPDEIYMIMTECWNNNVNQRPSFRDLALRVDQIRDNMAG
Chain of JAK2/JAK2 homdimeric complex (P32927 17-897 partner): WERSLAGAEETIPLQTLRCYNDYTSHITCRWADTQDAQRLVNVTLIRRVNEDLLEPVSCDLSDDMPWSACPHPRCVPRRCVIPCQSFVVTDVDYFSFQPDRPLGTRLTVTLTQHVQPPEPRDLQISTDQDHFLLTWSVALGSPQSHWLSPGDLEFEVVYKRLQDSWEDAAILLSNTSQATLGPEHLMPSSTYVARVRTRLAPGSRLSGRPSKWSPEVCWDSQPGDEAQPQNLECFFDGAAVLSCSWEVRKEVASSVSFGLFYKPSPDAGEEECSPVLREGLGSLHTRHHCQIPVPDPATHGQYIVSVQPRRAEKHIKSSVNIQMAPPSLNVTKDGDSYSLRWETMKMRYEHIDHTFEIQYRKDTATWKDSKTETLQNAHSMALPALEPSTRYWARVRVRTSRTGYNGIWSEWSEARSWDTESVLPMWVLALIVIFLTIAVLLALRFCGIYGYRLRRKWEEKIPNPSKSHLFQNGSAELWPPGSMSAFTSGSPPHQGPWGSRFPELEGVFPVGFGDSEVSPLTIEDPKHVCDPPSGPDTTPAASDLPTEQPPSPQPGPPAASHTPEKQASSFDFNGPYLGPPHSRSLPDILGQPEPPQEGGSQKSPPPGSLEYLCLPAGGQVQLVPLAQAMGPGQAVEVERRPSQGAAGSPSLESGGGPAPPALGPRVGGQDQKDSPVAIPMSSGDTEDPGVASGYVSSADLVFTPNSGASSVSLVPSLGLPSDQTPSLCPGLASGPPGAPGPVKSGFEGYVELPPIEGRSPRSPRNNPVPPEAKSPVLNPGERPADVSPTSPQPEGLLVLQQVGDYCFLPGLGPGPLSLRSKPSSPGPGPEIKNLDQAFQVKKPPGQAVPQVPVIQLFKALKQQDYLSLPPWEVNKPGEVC

[2] = molecular target: Tyk2/JAK2 (heterodimeric complex) (Homo sapiens (Human), UniProt P29597); test: IL-12 Induced pSTAT4 in Human PBMC; type: cell-based; details: 1.7 ng/mL IL-12
Chain of Tyk2/JAK2 (heterodimeric complex) (P29597 whole entry, other chains not shown): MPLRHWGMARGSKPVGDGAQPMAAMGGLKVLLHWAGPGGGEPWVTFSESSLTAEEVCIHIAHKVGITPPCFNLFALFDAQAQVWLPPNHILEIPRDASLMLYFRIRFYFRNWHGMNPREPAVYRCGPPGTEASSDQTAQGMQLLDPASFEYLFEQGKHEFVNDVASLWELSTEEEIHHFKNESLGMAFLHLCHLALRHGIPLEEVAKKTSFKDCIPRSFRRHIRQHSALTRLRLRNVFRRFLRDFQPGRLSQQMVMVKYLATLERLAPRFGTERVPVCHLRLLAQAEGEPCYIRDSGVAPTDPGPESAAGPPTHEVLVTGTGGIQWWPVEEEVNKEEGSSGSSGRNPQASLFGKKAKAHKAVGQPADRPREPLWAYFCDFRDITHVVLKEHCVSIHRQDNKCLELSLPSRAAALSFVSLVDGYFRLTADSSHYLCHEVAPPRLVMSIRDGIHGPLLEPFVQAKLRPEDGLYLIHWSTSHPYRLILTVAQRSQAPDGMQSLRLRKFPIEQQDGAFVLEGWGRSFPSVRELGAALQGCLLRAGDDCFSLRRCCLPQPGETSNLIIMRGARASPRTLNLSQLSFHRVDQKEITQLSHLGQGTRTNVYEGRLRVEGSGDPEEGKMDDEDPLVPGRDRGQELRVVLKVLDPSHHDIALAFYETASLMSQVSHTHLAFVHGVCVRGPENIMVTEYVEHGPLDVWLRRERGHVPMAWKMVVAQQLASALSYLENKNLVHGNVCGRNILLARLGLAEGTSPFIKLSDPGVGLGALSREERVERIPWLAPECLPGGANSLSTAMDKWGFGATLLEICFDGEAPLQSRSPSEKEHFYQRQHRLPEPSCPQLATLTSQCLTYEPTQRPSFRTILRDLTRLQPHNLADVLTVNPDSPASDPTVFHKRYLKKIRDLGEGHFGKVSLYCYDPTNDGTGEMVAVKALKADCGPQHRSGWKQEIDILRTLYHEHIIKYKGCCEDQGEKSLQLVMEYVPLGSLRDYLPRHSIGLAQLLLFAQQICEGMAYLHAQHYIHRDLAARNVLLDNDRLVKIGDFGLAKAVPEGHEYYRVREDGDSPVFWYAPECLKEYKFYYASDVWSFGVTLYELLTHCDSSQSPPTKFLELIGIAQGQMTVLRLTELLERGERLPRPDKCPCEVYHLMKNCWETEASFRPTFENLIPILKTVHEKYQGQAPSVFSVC
Text: The IL-12 Induced pSTAT4 assay evaluates the inhibition of IL-12 induced STAT4 phophorylation mediated by Tyk2/JAK2 (heterodimeric complex).

Tyk2 kinase domain (DH1) = Tyk2 kinase domain (DH1) (Homo sapiens (Human), UniProt P29597); test: Tyk2 Radioactive Kinase Assay; type: biochemical; details: for inhibition at 10 µM: read-out: Tyk2 JH1% Inhibition @ 10 μM
Chain of Tyk2 kinase domain (DH1) (P29597 897-1176): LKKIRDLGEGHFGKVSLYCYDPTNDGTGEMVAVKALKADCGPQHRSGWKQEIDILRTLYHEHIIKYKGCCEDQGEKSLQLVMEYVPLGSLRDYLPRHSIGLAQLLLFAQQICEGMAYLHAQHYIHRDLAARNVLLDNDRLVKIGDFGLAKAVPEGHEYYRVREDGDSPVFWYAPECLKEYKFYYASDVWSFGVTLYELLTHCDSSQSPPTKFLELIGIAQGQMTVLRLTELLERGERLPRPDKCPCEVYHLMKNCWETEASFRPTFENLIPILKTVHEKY
Summary of the method: as §1

[3] = molecular target: human TYK2 (JH2domain-pseudokinase) (Homo sapiens (Human), UniProt P29597); test: TYK2 JH2 Domain Binding Assay (KINOMEscan)
Chain of human TYK2 (JH2domain-pseudokinase) (P29597 556-888): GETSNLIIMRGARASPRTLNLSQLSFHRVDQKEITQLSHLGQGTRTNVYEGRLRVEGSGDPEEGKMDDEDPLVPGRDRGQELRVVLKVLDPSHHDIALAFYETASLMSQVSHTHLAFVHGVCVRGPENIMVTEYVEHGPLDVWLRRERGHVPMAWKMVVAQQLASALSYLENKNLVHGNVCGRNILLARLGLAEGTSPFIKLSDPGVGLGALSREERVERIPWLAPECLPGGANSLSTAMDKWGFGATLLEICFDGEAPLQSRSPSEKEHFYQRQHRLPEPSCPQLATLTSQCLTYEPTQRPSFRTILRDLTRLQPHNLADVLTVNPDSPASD
Summary of the method: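 Displacement of a DNA-tagged TYK2 JH2 fusion (human, aa G556–D888, HEK293 extract, <0.1 nM) from ligand-coated beads over 1 h at RT; binding buffer PBS/0.05% Tween 20/10 mM DTT/0.1% BSA.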

Chain of JAK2 kinase domain (JH1) (O60674 849-1124): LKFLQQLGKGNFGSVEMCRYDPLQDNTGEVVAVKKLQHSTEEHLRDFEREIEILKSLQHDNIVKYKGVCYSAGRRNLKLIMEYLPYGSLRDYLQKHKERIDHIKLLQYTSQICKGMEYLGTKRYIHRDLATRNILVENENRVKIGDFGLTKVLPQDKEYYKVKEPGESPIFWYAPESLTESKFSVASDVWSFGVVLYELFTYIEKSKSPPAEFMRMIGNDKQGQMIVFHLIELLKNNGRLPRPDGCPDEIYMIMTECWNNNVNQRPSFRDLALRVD

Row | SMILES | inhibition at 10 µM (JAK2 kinase domain (JH1); 10 μM compound, 10 μM ATP) [%] | IC50 [1] [nM] | IC50 [2] [nM] | inhibition at 10 µM (Tyk2 kinase domain (DH1); 10 μM compound, 10 μM ATP) [%] | Kd [3] [nM] | inhibition at 10 µM (JAK2 kinase domain (JH1); compound at 10 μM, ATP 10 μM) [%] | inhibition at 10 µM (Tyk2 kinase domain (DH1); compound at 10 μM, ATP 10 μM) [%] | JAK2 JH1% Inhibition @ 10 μM (JAK2 kinase domain (JH1); compound at 10 μM, ATP 10 μM) | Tyk2 JH1% Inhibition @ 10 μM (Tyk2 kinase domain (DH1); compound at 10 μM, ATP 10 μM)
1 | CNc1cc(Nc2cc(Cl)cn(C3CCN(C)CC3)c2=O)nc2c(C(=O)N[C@@H]3CC[C@H]3O)cnn12 [I-930] | < 50 | > 50000 | < 100 | < 50 | < 0.2 | – | – | – | –
2 | CNc1cc(Nc2cccc(-c3cnn(C)c3)c2Cl)nc2c(C(N)=O)cnn12 [I-17] | – | > 2500 | < 100 | – | < 0.2 | < 50 | 70 to 90 | – | –
3 | CNc1cc(Nc2cccnc2OC)nc2c(C(=O)N[C@H]3C[C@@H]3O)cnn12 [I-438, N-((1S,2S)-2-hydroxycyclopropyl)-5-((2-methoxypyridin-3-yl)amino)-7-(methylamino)pyrazolo[1,5-a]pyrimidine-3-carboxamide] | – | > 50000 | < 100 | – | < 0.2 | < 50 | < 50 | – | –
4 | CNc1cc(-c2cn(C(C)C)c3ncccc23)nc2c(C(=O)N[C@H]3CC[C@@H]3O)cnn12 [I-639] | – | > 12500 | < 100 | – | < 0.2 | – | – | A (percent inhibition at 10 μM lower than 50) | A (percent inhibition at 10 μM lower than 50)
5 | CNc1cc(Nc2cccc(N3CCCC3=O)n2)nc2c(C(=O)NC3CC3)cnn12 [I-7] | – | > 12500 | < 100 | – | < 0.2 | < 50 | < 50 | – | –
6 | CNc1cc(Nc2cc(F)cn(-c3ccccn3)c2=O)nc2c(C(=O)N[C@H]3C[C@H]3F)cnn12 [I-194] | – | > 12500 | < 100 | – | < 0.2 | < 50 | < 50 | – | –
7 | CNc1cc(Nc2cc(Cl)cn(-c3cnn(C)c3)c2=O)nc2c(C(=O)NC3CC3)cnn12 [I-311] | – | > 12500 | < 100 | – | < 0.2 | < 50 | < 50 | – | –
8 | CNc1cc(-c2cn(CCN3CCCCC3)c3ncccc23)nc2c(C(=O)N[C@H]3C[C@H]3F)cnn12 [I-585] | – | > 12500 | < 100 | – | < 0.2 | < 50 | < 50 | – | –
9 | CNc1cc(Nc2cccn(C3CC4(COC4)C3)c2=O)nc2c(C(=O)N[C@@H]3C[C@@H]3F)cnn12 [I-551, N-((1R,2S)-2-fluorocyclopropyl)-7-(methylamino)-5-((2-oxo-1-(2-oxaspiro[3.3]heptan-6-yl)-1,2-dihydropyridin-3-yl)amino)pyrazolo[1,5-a]pyrimidine-3-carboxamide] | – | > 2500 | < 100 | – | < 0.2 | < 50 | < 50 | – | –
10 | CNc1cc(Nc2cccn(-c3cnn(CC4CCOCC4)c3)c2=O)nc2c(C(=O)N[C@H]3C[C@H]3F)cnn12 [I-407] | – | > 12500 | < 100 | – | < 0.2 | < 50 | < 50 | – | –
11 | CNc1cc(Nc2cccn([C@H]3CC[C@H](OC)CC3)c2=O)nc2c(C(=O)N[C@@H]3CC[C@@H]3O)cnn12 [I-560] | – | > 2500 | < 100 | – | < 0.2 | < 50 | < 50 | – | –
12 | CNc1cc(Nc2cccn(-c3nc(C)co3)c2=O)nc2c(C(=O)N[C@H]3C[C@H]3F)cnn12 [I-369] | – | > 50000 | < 100 | – | < 0.2 | < 50 | < 50 | – | –
13 | CNc1cc(Nc2cccnc2OC)nc2c(C(=O)NCC3(CO)CC3)cnn12 [I-425] | – | > 50000 | < 100 | – | < 0.2 | < 50 | < 50 | – | –
14 | CNc1cc(Nc2cc(Cl)cn(C3CCCOC3)c2=O)nc2c(C(=O)N[C@H]3C[C@H]3F)cnn12 (some centres unmarked) [I-693] | – | > 50000 | < 100 | – | < 0.2 | < 50 | < 50 | – | –
15 | CNc1cc(Nc2cc(Cl)cn(-c3cnc(C(=O)N(C)C)cn3)c2=O)nc2c(C(=O)N[C@H]3C[C@H]3F)cnn12 [I-319] | – | > 2500 | < 100 | – | < 0.2 | < 50 | < 50 | – | –
16 | CCn1cc(Cl)cc(Nc2cc(NC)n3ncc(C(=O)NC4CC4)c3n2)c1=O [I-133, 5-((5-chloro-1-ethyl-2-oo-1,2-dihydropyridin-3-yl)amino)-N-cyclopropyl-7-(methylamino)pyrazolo[1,5-a]pyrimidine-3-carboxamide] | – | > 12500 | < 100 | – | < 0.2 | < 50 | < 50 | – | –
